Measured values taken from patent US20260049071A1, “PROTEIN TYROSINE KINASE INHIBITOR AND MEDICAL USE THEREOF” (BEYANG THERAPEUTICS CO., LTD., priority 2022, published 2026).

Key:
KDR (VEGFR2) = KDR (VEGFR2) (Homo sapiens (Human), UniProt P35968); experiment: Kinase inhibition, Mobility Shift Assay (VEGFR2); assay type: biochemical
Protocol: (§1) This assay directly monitored the ability of compounds to inhibit kinase phosphorylation by measuring non-phosphorylated and phosphorylated substrates in kinase reactions by using Mobility Shift Assays/IMAP™ analysis.
(§2) Add the kinase and DTT to 1× kinase buffer to form a 2.5× kinase solution; transfer 10 μL of 2.5× kinase solution to a 384-well reaction plate and add 1× kinase buffer to negative control wells. Incubate the plate for 10 min at room temperature; add FAM-labeled peptides, MgCl2, ATP and other reagents to 1× kinase buffer to form a 2.5× substrate solution; transfer 10 μL of the above 2.5× substrate solution to the 384-well reaction plate; incubate the plate at 28° C. for different times, and add 25 μL of stop solution to the 384-well reaction plate to stop the reaction. Read the conversion ratio data on CaliperEZ Reader II. Convert conversion rates into inhibition ratio data.
(§3) “Min” indicates the readout of the control well without the addition of kinase; and “Max” indicates the readout of the control well with the addition of DMSO. Fit IC50 values with XLFit excel add-in version 5.4.0.8.
(§4) X indicates the log value of compound concentration, and Y indicates the inhibition ratio (% inhibition).

FLT1 (VEGFR1) = FLT1 (VEGFR1) (Homo sapiens (Human), UniProt P17948); experiment: Kinase inhibition, Mobility Shift Assay (VEGFR1); assay type: biochemical
FLT1 (VEGFR1), sequence (P17948 27-1338): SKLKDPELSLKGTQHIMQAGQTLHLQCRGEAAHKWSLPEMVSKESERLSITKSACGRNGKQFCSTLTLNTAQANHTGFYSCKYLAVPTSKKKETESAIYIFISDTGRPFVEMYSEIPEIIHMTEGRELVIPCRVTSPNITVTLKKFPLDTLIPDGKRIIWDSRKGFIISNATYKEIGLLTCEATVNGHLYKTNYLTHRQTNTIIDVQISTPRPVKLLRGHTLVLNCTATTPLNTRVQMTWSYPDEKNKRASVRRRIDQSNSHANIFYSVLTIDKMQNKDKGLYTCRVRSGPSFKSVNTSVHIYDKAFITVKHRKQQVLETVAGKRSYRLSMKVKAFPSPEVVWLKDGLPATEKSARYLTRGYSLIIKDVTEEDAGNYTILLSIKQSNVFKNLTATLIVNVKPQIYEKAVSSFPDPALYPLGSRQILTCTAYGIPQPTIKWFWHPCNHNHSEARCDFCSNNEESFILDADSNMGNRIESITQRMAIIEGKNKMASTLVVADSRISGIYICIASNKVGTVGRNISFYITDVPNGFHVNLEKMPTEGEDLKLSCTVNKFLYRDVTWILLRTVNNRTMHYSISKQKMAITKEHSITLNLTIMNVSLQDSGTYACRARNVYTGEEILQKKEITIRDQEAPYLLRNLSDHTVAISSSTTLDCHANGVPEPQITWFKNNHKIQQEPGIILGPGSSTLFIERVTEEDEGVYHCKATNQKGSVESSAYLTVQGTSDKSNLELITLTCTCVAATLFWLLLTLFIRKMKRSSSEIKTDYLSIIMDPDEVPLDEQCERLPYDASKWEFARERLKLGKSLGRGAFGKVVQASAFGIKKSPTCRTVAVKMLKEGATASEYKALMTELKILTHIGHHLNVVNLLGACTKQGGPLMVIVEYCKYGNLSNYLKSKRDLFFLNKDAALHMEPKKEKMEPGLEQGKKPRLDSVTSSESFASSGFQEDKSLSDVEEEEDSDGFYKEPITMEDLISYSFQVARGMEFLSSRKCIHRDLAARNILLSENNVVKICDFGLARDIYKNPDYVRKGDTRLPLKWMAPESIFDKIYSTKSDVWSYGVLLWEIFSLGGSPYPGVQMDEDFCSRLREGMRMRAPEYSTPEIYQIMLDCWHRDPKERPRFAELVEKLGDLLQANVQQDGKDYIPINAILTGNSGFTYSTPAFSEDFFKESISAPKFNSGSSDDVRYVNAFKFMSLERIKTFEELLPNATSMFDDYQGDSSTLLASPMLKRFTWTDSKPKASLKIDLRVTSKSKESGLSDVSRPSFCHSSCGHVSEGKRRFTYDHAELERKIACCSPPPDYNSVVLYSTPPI
Protocol: as §1, §2, §3, §4

melanin = experiment: Binding capacity of compounds to melanin; assay type: in vitro ADME; details: Sepia officinalis (cuttlefish), melanin suspension (1 mg/mL); 1 mg/mL melanin suspension in PBS pH 7.4, 2 μM compound, 2 h at 37° C.; read-out: Fu % (percentage of free drug, not bound to melanin)
Description: Pigmented eye tissues contain melanin in intracellular melanosomes. Drugs bind to melanin to varying degrees, ranging from non-binding to extensive binding. Therefore, melanin binding is an important feature that affects drug delivery and biodistribution in the eye. The binding capacity of a compound to the melanin must be considered in the development of ophthalmic drugs.
Melanin was derived from the melanin of cuttlefish (Sepia officinalis) and was commercially available from Sigma Aldrich (St Louis, MO).
First, prepare 1 mg/mL melanin suspension with PBS (pH 7.4). As a washing step for the matrix, centrifuge the suspended particles for 5 min at 3000 rpm. Resuspend the resulting particles in a fresh PBS buffer, heat to 37° C. over continuous shaking and incubate it for 1 h. Accurately pipette 2 μL of the test stock solution (0.1 mM) into 98 μL of melanin suspension (1 mg/mL) to achieve a final incubation concentration of 2 μM. Similarly, accurately pipette 2 μL of the stock solution (0.1 mM) to 98 μL of PBS buffer (containing 0.1% BSA) as a blank control sample. Incubate the samples in a shaker (80-90 rpm) for 2 h at 37° C. Then, centrifuge the samples at room temperature. Pipette 50 μL of the supernatant and add 50 μL of precipitant (containing an internal standard). After protein precipitation of all the above samples, centrifuge the samples to collect the supernatants, dilute the supernatants with water (if necessary) and inject them for analysis. At the same time, measure the positive controls, including the high-binding compounds Sunitinib and chloroquine and the low-binding compound celecoxib. Establish an LC-MS/MS method for determining compound concentrations, and calibrate the peak area ratio of analyte/internal standard (Analyte/AIS) in the measured sample by the dilution factor to take it as an alternative concentration for the sample for data processing. The binding rate (Fh) of a compound in melanin was calculated as: […]
Ctest was the concentration of the compound in the melanin-incubated sample or the peak area ratio of the test compound to the internal standard. Ccontrol was the concentration of the compound in the blank control sample or the peak area ratio of the test compound to the internal standard. Percentage of free drug (Fu %)=100−Fb The binding rates of the compounds of the present invention to melanin are shown in the table below: […]

FLT4 (VEGFR3) = FLT4 (VEGFR3) (Homo sapiens (Human), UniProt P35916); experiment: Kinase inhibition, Mobility Shift Assay (VEGFR3); assay type: biochemical
FLT4 (VEGFR3), sequence (P35916 25-1363): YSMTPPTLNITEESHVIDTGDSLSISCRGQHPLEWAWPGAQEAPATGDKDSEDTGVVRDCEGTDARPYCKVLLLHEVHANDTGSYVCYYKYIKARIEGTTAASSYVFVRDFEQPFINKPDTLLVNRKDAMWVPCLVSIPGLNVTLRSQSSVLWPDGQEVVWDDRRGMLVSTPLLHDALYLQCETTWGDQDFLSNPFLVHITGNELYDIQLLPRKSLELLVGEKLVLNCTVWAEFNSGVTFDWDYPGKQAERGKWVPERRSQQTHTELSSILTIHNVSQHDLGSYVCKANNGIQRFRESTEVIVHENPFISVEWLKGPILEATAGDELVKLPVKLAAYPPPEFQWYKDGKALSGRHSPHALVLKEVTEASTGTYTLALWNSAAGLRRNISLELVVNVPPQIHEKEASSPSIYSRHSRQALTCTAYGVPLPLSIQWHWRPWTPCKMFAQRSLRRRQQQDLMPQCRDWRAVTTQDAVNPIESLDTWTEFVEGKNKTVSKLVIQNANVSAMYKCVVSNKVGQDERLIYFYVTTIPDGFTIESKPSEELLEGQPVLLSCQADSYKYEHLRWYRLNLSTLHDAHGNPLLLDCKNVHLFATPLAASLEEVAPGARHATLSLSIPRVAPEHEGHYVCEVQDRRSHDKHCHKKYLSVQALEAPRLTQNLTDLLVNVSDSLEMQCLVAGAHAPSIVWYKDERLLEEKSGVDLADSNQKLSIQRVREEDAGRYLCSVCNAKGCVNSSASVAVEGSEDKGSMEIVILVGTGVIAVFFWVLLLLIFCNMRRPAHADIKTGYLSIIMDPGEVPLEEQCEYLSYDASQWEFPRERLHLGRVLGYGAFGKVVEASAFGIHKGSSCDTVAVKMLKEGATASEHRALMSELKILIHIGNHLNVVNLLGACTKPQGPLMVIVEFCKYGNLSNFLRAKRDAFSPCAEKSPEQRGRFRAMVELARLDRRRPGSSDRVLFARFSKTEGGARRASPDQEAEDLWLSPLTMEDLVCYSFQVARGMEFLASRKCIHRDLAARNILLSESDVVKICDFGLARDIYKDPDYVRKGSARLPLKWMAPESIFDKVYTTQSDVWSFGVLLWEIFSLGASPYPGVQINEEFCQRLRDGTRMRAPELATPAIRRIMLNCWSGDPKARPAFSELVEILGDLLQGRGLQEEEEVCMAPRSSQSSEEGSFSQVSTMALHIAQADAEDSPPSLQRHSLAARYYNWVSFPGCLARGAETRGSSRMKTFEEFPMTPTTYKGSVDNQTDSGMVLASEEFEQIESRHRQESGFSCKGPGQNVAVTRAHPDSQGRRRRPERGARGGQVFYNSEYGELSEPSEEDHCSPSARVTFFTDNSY
Protocol: as §1, §2, §3, §4

EGFR = EGFR (Homo sapiens (Human), UniProt P00533); experiment: Kinase inhibition, Mobility Shift Assay (EGFR); assay type: biochemical
EGFR, sequence (P00533 25-1210): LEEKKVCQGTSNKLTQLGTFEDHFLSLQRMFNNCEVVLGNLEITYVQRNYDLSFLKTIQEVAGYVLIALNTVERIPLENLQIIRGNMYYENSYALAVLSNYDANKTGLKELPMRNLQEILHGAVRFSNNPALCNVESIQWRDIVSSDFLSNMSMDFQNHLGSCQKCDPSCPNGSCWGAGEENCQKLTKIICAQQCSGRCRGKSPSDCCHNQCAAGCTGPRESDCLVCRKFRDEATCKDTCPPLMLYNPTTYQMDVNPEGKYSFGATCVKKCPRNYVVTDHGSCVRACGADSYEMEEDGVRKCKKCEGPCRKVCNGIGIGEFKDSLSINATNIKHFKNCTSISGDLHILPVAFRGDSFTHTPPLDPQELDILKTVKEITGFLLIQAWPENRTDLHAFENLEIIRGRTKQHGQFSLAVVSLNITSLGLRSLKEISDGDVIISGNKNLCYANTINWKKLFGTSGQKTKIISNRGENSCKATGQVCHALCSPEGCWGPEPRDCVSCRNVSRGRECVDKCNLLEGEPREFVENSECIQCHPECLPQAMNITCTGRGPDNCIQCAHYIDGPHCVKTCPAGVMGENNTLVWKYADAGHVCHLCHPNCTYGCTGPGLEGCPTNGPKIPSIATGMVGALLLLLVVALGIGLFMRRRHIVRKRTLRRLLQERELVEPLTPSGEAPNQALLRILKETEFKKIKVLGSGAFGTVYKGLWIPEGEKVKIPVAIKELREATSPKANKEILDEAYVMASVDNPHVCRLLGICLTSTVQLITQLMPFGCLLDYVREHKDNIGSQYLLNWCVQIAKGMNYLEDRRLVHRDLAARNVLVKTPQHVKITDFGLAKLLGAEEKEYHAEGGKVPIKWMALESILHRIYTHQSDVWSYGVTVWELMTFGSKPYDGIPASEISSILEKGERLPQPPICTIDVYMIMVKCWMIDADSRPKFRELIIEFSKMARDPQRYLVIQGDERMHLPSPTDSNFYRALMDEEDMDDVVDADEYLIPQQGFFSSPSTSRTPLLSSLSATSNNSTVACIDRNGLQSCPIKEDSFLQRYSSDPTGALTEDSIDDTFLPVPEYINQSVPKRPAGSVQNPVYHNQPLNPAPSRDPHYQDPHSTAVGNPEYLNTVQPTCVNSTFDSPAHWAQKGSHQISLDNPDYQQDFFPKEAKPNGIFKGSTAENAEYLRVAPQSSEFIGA
Protocol: as §1, §2, §3, §4

KDR (VEGFR2), sequence (P35968 790-1356): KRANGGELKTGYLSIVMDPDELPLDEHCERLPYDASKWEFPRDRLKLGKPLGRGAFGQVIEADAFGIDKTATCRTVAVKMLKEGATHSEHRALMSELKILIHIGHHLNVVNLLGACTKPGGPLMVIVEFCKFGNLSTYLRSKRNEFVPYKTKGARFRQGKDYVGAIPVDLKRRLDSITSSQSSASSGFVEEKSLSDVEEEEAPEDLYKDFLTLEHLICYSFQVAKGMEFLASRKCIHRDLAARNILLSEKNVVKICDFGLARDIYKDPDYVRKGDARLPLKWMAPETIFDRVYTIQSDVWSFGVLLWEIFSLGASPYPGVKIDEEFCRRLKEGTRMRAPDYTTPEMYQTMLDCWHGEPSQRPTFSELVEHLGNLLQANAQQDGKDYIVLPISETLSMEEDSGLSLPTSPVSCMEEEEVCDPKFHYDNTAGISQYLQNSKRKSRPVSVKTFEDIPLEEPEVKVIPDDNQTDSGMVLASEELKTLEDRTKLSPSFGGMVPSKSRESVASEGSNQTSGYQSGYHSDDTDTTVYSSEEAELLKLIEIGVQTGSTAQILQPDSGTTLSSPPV

Compound	IC50 (KDR (VEGFR2))	IC50 (FLT1 (VEGFR1))	fraction unbound at 2 h, 2 μM (melanin)	IC50 (FLT4 (VEGFR3))	IC50 (EGFR)
CNC(=O)c1ccccc1Sc1ccc2c(C#Cc3cccc(OCCN4CCCC4)n3)n[nH]c2c1 [Compound I-24, N-methyl-2-{[3-(2-{6-[2-(pyrrolidin-1-yl)ethoxy]pyridin-2-yl}ethynyl)-1H-indazol-6-yl]thio}benzamide]	10 to 100 nM	10 to 100 nM		10 to 100 nM	6000 to 60000 nM
CNC(=O)c1ccccc1Sc1ccn2c(/C=C/c3ccccn3)ncc2c1 [Compound I-27, N-methyl-2-({3-[(E)-2-(pyridin-2-yl)vinyl]imidazo[1,5-a]pyridin-7-yl}thio)benzamide]	> 100 nM	> 100 nM		> 100 nM	6000 to 60000 nM
O=C(NC1CC1)c1cccc(F)c1Sc1ccc2c(/C=C/c3cnn(CCCN4CCCC4)c3)n[nH]c2c1 [Compound I-44, N-cyclopropyl-3-fluoro-2-({3-[(E)-2-{1-[3-(pyrrolidin-1-yl)propyl]-1H-pyrazol-4-yl}vinyl]-1H-indazol-6-yl}thio)benzamide]			0.01 to 0.05		
CNC(=O)c1cccc(F)c1Sc1ccc2c(/C=C/c3cnn(CCCN4CCCC4)c3)n[nH]c2c1 [Compound I-76, 3-fluoro-N-methyl-2-({3-[(E)-2-{1-[3-(pyrrolidin-1-yl)propyl]-1H-pyrazol-4-yl}vinyl]-1H-indazol-6-yl}thio)benzamide]	1 to 10 nM		> 0.05		600 to 6000 nM
O=C(NC1CC1)c1ccc(F)cc1Sc1ccc2c(/C=C/c3ccc(CN4CCCC4)cn3)n[nH]c2c1 [Compound I-79, N-cyclopropyl-4-fluoro-2-({3-[(E)-2-{5-[(pyrrolidin-1-yl)methyl]pyridin-2-yl}vinyl]-1H-indazol-6-yl}thio)benzamide]	≤ 1 nM		> 0.05		6000 to 60000 nM
O=C(NC1CC1)c1ccccc1Nc1ccc2c(/C=C/c3ccc(CN4CCCC4)cn3)n[nH]c2c1 [Compound I-82, N-cyclopropyl-2-({3-[(E)-2-{5-[(pyrrolidin-1-yl)methyl]pyridin-2-yl}vinyl]-1H-indazol-6-yl}amino)benzamide]	≤ 1 nM		0.01 to 0.05		6000 to 60000 nM
CCN(CC)Cc1ccc(/C=C/c2n[nH]c3cc(Sc4c(F)cccc4C(=O)NC)ccc23)nc1 [Compound I-91, 2-({3-[(E)-2-{5-[(diethylamino)methyl]pyridin-2-yl}vinyl]-1H-indazol-6-yl}thio)-3-fluoro-N-methylbenzamide]	1 to 10 nM		0.01 to 0.05		6000 to 60000 nM
O=C(NC1CC1)c1cc(F)ccc1Sc1ccc2c(/C=C/c3cc(CN4CCCC4)ccn3)n[nH]c2c1 [Compound I-137, N-cyclopropyl-5-fluoro-2-({3-[(E)-2-{4-[(pyrrolidin-1-yl)methyl]pyridin-2-yl}vinyl]-1H-indazol-6-yl}thio)benzamide]	1 to 10 nM				> 60000 nM
O=C(NC1CC1)c1cc(F)ccc1Sc1ccc2c(/C=C/c3cccc(CN4CCCC4)n3)n[nH]c2c1 [Compound I-138, N-cyclopropyl-5-fluoro-2-({3-[(E)-2-{6-[(pyrrolidin-1-yl)methyl]pyridin-2-yl}vinyl]-1H-indazol-6-yl}thio)benzamide]	1 to 10 nM				> 60000 nM
O=C(NC1CC1)c1ccccc1Sc1ccc2c(C#Cc3ccc(OCCN4CCCC4)cn3)n[nH]c2c1 [Compound I-139, N-cyclopropyl-2-{[3-(2-{5-[2-(pyrrolidin-1-yl)ethoxy]pyridin-2-yl}ethynyl)-1H-indazol-6-yl]thio}benzamide]	10 to 100 nM				> 60000 nM

The remaining lines, values ahead:

IC50 (KDR (VEGFR2))	IC50 (FLT1 (VEGFR1))	fraction unbound at 2 h, 2 μM (melanin)	IC50 (FLT4 (VEGFR3))	IC50 (EGFR)	Compound
≤ 1 nM	≤ 1 nM	0.01 to 0.05			CNC(=O)c1ccccc1Sc1ccc2c(/C=C/c3ccc(OCC4CCCN4C)cn3)n[nH]c2c1 (stereo not drawn) [Compound I-2, N-methyl-2-({3-[(E)-2-{5-[(1-methylpyrrolidin-2-yl)methoxy]pyridin-2-yl}vinyl]-1H-indazol-6-yl}thio)benzamide]
	≤ 1 nM	> 0.05			CNC(=O)c1ccccc1Sc1ccc2c(/C=C/c3ccc(OCC4CCNC4)cn3)n[nH]c2c1 (stereo not drawn) [Compound I-7]
1 to 10 nM	1 to 10 nM		≤ 1 nM	6000 to 60000 nM	CNC(=O)c1ccccc1Sc1ccc2c(/C=C/c3ccc(O)cn3)n[nH]c2c1 [Compound I-10, 2-({3-[(E)-2-(5-hydroxypyridin-2-yl)vinyl]-1H-indazol-6-yl}thio)-N-methylbenzamide]
≤ 1 nM	≤ 1 nM	0.01 to 0.05			CNC(=O)c1ccccc1Sc1ccc2c(/C=C/c3ccc(OC[C@H]4CCN(C)C4)cn3)n[nH]c2c1 [Compound I-37, N-methyl-2-({3-[(E)-2-(5-{[(3S)-1-methylpyrrolidin-3-yl]methoxy}pyridin-2-yl)vinyl]-1H-indazol-6-yl}thio)benzamide]
		0.01 to 0.05			CN(C)CCOc1ccc(/C=C/c2n[nH]c3cc(Sc4ccccc4C(=O)NC4CC4)ccc23)nc1 [Compound I-51, N-cyclopropyl-2-({3-[(E)-2-{5-[2-(dimethylamino)ethoxy]pyridin-2-yl}vinyl]-1H-indazol-6-yl}thio)benzamide]
		> 0.05			CCN(C)CCOc1ccc(/C=C/c2n[nH]c3cc(Sc4ccccc4C(=O)NC4CC4)ccc23)nc1 [Compound I-52, N-cyclopropyl-2-({3-[(E)-2-{5-[2-(diethylamino)ethoxy]pyridin-2-yl}vinyl]-1H-indazol-6-yl}thio)benzoyl]
		> 0.05			O=C(NC1CC1)c1ccccc1Sc1ccc2c(/C=C/c3ccc(OCCN4CCCCC4)cn3)n[nH]c2c1 [Compound I-53, N-cyclopropyl-2-({3-[(E)-2-{5-[2-(piperidin-1-yl)ethoxy]pyridin-2-yl}vinyl]-1H-indazol-6-yl}thio)benzamide]
1 to 10 nM		0.01 to 0.05		6000 to 60000 nM	CCNC(=O)c1ccccc1Sc1ccc2c(/C=C/c3ccc(CN4CCCC4)cn3)n[nH]c2c1 [Compound I-73, N-ethyl-2-({3-[(E)-2-{5-[(pyrrolidin-1-yl)methyl]pyridin-2-yl}vinyl]-1H-indazol-6-yl}thio)benzamide]
1 to 10 nM		0.01 to 0.05		6000 to 60000 nM	CCN(CC)Cc1ccc(/C=C/c2n[nH]c3cc(Sc4ccc(F)cc4C(=O)NC)ccc23)nc1 [Compound I-93, 2-({3-[(E)-2-{5-[(diethylamino)methyl]pyridin-2-yl}vinyl]-1H-indazol-6-yl}thio)-5-fluoro-N-methylbenzamide]
1 to 10 nM		0.01 to 0.05		6000 to 60000 nM	CNC(=O)c1ccc(F)cc1Sc1ccc2c(/C=C/c3ccc(CN4CCCC4)cn3)n[nH]c2c1 [Compound I-94, 4-fluoro-N-methyl-2-({3-[(E)-2-{5-[(pyrrolidin-1-yl)methyl]pyridin-2-yl}vinyl]-1H-indazol-6-yl}thio)benzamide]
1 to 10 nM		> 0.05		6000 to 60000 nM	CCN(CC)Cc1ccc(/C=C/c2n[nH]c3cc(Sc4ccccc4C(=O)NCCF)ccc23)nc1 [Compound I-98, 2-({3-[(E)-2-{5-(diethylamino)methyl]pyridin-2-ylvinyl]-1H-indazol-6-yl}thio)-N-(2-fluoroethyl)benzamide]
1 to 10 nM		> 0.05		6000 to 60000 nM	CCN(CC)Cc1ccc(/C=C/c2n[nH]c3cc(Sc4ccccc4C(=O)NCC(F)F)ccc23)nc1 [Compound I-99, 2-({3-[(E)-2-{5-[(diethylamino)methyl]pyridin-2-yl}vinyl]-1H-indazol-6-yl}thio)-N-(2,2-difluoroethyl)benzamide]
